Assay results: the supplement of paper PMC10307832

What was measured:
Experiment in all cases: relative viability (nuclei count vs DMSO), 5 days (fraction); higher = more cells survive
Motesanib + Trametinib = compound: CC1(C)CNc2cc(NC(=O)c3cccnc3NCc3ccncc3)ccc21 [Motesanib] + CC(=O)Nc1cccc(-n2c(=O)n(C3CC3)c(=O)c3c(Nc4ccc(I)cc4F)n(C)c(=O)c(C)c32)c1 [Trametinib] (partner 0.02 µM)
Method in brief: (§1)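 Relative viability is defined as nuclei in treated wells over nuclei in vehicle wells. Duplicate plates were run and medians reported. Lung cancer cell lines in 1536-well plates were dosed by pin tool one day after seeding, with one drug or with a fixed anchor-drug dose plus five library-drug doses (not always all listed) in √10 steps, and nuclei were counted after 5 days.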

Motesanib + Luminespib = compound: CC1(C)CNc2cc(NC(=O)c3cccnc3NCc3ccncc3)ccc21 [Motesanib] + CCNC(=O)c1noc(-c2cc(C(C)C)c(O)cc2O)c1-c1ccc(CN2CCOCC2)cc1 [Luminespib] (partner 0.01 µM)
Method in brief: as §1

[1] = compound: C[C@@]1(C(=O)Nc2ccc(F)nc2)CCCN1c1nc(Nc2cc(C3CC3)n[nH]2)c2cccn2n1 + CS(=O)(=O)N1CCN(Cc2cc3nc(-c4cccc5[nH]ncc45)nc(N4CCOCC4)c3s2)CC1 [Pictilisib] (partner 1 µM)
Method in brief: as §1

[2] = compound: C[C@@]1(C(=O)Nc2ccc(F)nc2)CCCN1c1nc(Nc2cc(C3CC3)n[nH]2)c2cccn2n1 + O=C(c1cc(Cc2n[nH]c(=O)c3ccccc23)ccc1F)N1CCN(C(=O)C2CC2)CC1 [Olaparib] (partner 8 µM)
Method in brief: as §1

Cell Line	relative viability (Motesanib + Trametinib; first compound 0.01 µM)	relative viability (Motesanib + Trametinib; first compound 0.03162 µM)	relative viability (Motesanib + Trametinib; first compound 0.1 µM)	relative viability (Motesanib + Trametinib; first compound 0.3162 µM)	relative viability (Motesanib + Trametinib; first compound 1 µM)	relative viability (Motesanib + Luminespib; first compound 0.01 µM)	relative viability (Motesanib + Luminespib; first compound 0.03162 µM)	relative viability (Motesanib + Luminespib; first compound 0.1 µM)	relative viability (Motesanib + Luminespib; first compound 0.3162 µM)	relative viability (Motesanib + Luminespib; first compound 1 µM)	relative viability ([1]; first compound 0.04 µM)	relative viability ([1]; first compound 0.1265 µM)	relative viability ([1]; first compound 0.4 µM)	relative viability ([1]; first compound 1.265 µM)	relative viability ([2]; first compound 0.04 µM)	relative viability ([2]; first compound 0.1265 µM)	relative viability ([2]; first compound 0.4 µM)	relative viability ([2]; first compound 1.265 µM)
NCI-H1793	0.375	0.362	0.513	0.409	0.523	0.26	0.196	0.199	0.463	0.182	0.338	0.284	0.323	0.293	0.751	0.668	0.475	0.772
NCI-H1915	0.209	0.338	0.318	0.288	0.365	0.765	0.745	0.764	0.826	0.754	0.948	1.04	0.894	0.863	0.266	0.257	0.242	0.257
NCI-H1944	0.438	0.442	0.408	0.455	0.384	0.79	0.785	0.749	0.772	0.78	0.29	0.323	0.283	0.316	0.413	0.394	0.362	0.492
NCI-H1975	0.335	0.359	0.316	0.38	0.339	0.275	0.203	0.224	0.261	0.361	0.226	0.211	0.188	0.197	0.653	0.749	0.626	0.476
NCI-H1993	0.598	0.566	0.49	0.718	0.5	0.923	0.734	0.826	0.863	0.932	0.906		0.803	0.812	0.926	0.88	0.492	0.662
NCI-H2009	0.244	0.316	0.273	0.291	0.289	1.01	1.04	0.945	1.07	1.01	0.824	0.765	0.653	0.717	0.718	0.657	0.726	0.663
NCI-H2023	0.666	0.339	0.574	0.589	0.569	0.778	0.687	0.855	0.811	0.783	0.197	0.129	0.118	0.146	0.456	0.422	0.333	0.122
NCI-H2085	0.513	0.537	0.521	0.535	0.526	0.47	0.434	0.428	0.438	0.462	0.487	0.46	0.469	0.495	0.827	0.748	0.711	0.819
NCI-H2087			0.199	0.182	0.182	0.159	0.174	0.149	0.149	0.145	0.896	0.783	0.792	0.7	0.593	0.483	0.369	0.482
NCI-H2126	0.58	0.579	0.579	0.543	0.547	0.9	0.901	0.963	0.933	0.961	0.456	0.392	0.394	0.436	0.67	0.643	0.575	0.76
NCI-H2170	0.861	0.872	0.91	0.909	0.979	0.628	0.726	0.39	0.734	0.645	0.243	0.212	0.188	0.243	0.568	0.556	0.488	0.601
NCI-H2228	0.395	0.764	0.459	0.505	0.466	0.19	0.148	0.228	0.142	0.163	0.216	0.175	0.198	0.246	0.767	0.503	0.426	0.32
NCI-H2347	0.264	0.3	0.292	0.245	0.278	0.858	0.254	0.5	0.48	0.4	0.595	0.6	0.516	0.776	0.536	0.569	0.48	0.524
NCI-H2405	0.53	0.603	0.625	0.684	0.704		0.536	0.741	0.689	0.813	0.391	0.357	0.37	0.296	0.808	0.611	0.598	0.511
NCI-H3122	0.218	0.227	0.229	0.211	0.197	0.0808	0.0851	0.0914	0.0799	0.0833	0.479	0.374	0.479	0.393	0.633	0.571	0.581	0.723
PC-3 [JPC-3]	0.745	0.676	0.795	0.779	0.703	0.686	0.745	0.683	0.597	0.733	0.784	0.595	0.708	0.644	1.23	0.798	1.04	1.1
PC-14	0.809	0.8	0.817	0.79	0.93	0.117	0.142	0.126	0.218	0.154	0.505	0.0522	0.37	0.485	0.368	0.335	0.319	0.222
RERF-LC-KJ	0.88	0.875	0.805	0.845	0.909	1.31	1.2	1.12	1.38	1.27	0.477	0.44	0.228	0.494	0.892	0.858	0.737	0.345
